From patent EP0429856A2, “Pharmaceutical preparation containing a metal salt of ibuprofen and process for making same” (Dolorgiet GmbH & Co. KG, priority 1989, dated 1991) come the findings set out here.

The nature of this series: Solubility of ibuprofen salts in saturated solutions at room temperature (HPLC, UV detection). From the text:
Zur Bestimmung der Löslichkeit der Ibuprofen-Salze werden bei Raumtemperatur gesättigte Lösungen hergestellt. Ein aliguoter Teil dieser Lösungen wird mit einem mit der Lösung mischbaren Lösungsmittel verdünnt und der Gehalt an Ibuprofen mittels HPLC über eine Reversed-Phase-Säule und UV-Detektion bestimmt.

[1] abbreviates: 1,2-Propandiol/Glycerin/Wasser (2/4/3;v/v/v).
Setting [2] is: 1,2-Propandiol/Polyethylenglykol 400/Wasser (5/3/6;v/v/v).
Setting [3] is: Cabrylic/Capric Triglyceride (Miglyol 810).
The mark [4] stands for this setting: Caprylic/Capric Triglyceride (Miglyol 812).
Setting [5] is: Ethanol/1,2-Propandiol/Wasser (1/4/4;v/v/v).
The mark [6] stands for this setting: Polyoxyethylen-(7)-glycerin-kokosnußöfettsäure-ester.
[7] abbreviates: Polyoxyethylierte Olein-Glyceride (Labrafil M 1944 CS).

As to “Aluminiumdiibuprofen (1 : 2) [Ibuprofen-Al (2 : 1)]”, the “Löslichkeit von Ibuprofen-Salzen bei Raumtemperatur” value is 0,8 mg Ibuprofen/ml (1,2-Propandiol); < 0,1 mg Ibuprofen/ml under setting [1]; < 0,1 mg Ibuprofen/ml under setting [2]; 0,5 mg Ibuprofen/ml under setting [3]; 0,3 mg Ibuprofen/ml under setting [4]; 2 mg Ibuprofen/ml (Ethanol). The “Löslichkeit von Ibuprofen-Salzen bei Raumtemperatur” value is, setting by setting: under setting [5], < 0,1 mg Ibuprofen/ml; (Glycerin) < 0,1 mg Ibuprofen/ml; (Glycerinmonoricinoleat) 4,5 mg Ibuprofen/ml; (Isopropylmyristat) 1 mg Ibuprofen/ml; (Paraffinum supl.) < 0,1 mg Ibuprofen/ml; (Polyethylenglykol 400) 2 mg Ibuprofen/ml. Also, the “Löslichkeit von Ibuprofen-Salzen bei Raumtemperatur” value was 6 mg Ibuprofen/ml under setting [6], 4 mg Ibuprofen/ml under setting [7] and < 0,1 mg Ibuprofen/ml (Wasser).

Ibuprofen-Magnesiumsalz [Ibuprofen-Mg]: the “Löslichkeit von Ibuprofen-Salzen bei Raumtemperatur” value (1,2-Propandiol) is given as 160 mg Ibuprofen/ml; the “Löslichkeit von Ibuprofen-Salzen bei Raumtemperatur” value under setting [1] amounted to 250 mg Ibuprofen/ml; the “Löslichkeit von Ibuprofen-Salzen bei Raumtemperatur” value under setting [2] is recorded as 125 mg Ibuprofen/ml; the “Löslichkeit von Ibuprofen-Salzen bei Raumtemperatur” value under setting [3] was found to be 35 mg Ibuprofen/ml; the “Löslichkeit von Ibuprofen-Salzen bei Raumtemperatur” value under setting [4] is given as 17 mg Ibuprofen/ml; the “Löslichkeit von Ibuprofen-Salzen bei Raumtemperatur” value (Ethanol) amounted to 500 mg Ibuprofen/ml. Moreover, the “Löslichkeit von Ibuprofen-Salzen bei Raumtemperatur” value runs as follows: under setting [5], 330 mg Ibuprofen/ml; (Glycerin) 8 mg Ibuprofen/ml; (Glycerinmonoricinoleat) 450 mg Ibuprofen/ml; (Isopropylmyristat) 260 mg Ibuprofen/ml; (Paraffinum supl.) 0,4 mg Ibuprofen/ml; (Polyethylenglykol 400) 40 mg Ibuprofen/ml. Moreover, the “Löslichkeit von Ibuprofen-Salzen bei Raumtemperatur” value was determined as 480 mg Ibuprofen/ml under setting [6], 380 mg Ibuprofen/ml under setting [7] and 7 mg Ibuprofen/ml (Wasser).
